Results as given in patent publication US20230101743A1, “SUBSTITUTED TRIAZINE COMPOUNDS AND USES THEREOF” (MUSC FOUNDATION FOR RESEARCH DEVELOPMENT, priority 2020, published 2023).

Tests used:
[1] = tested on: total cholesterol levels within the medium; assay: Total cholesterol quantification in culture medium of iPSC-derived hepatocytes; format: cell-based, human; conditions: 2 μg/mL, 24 hours; normalized with DMSO treated control
Procedure: B. Human iPSC-derived hepatocytes were treated with 2 μg/mL of DL-1 for 24 hours. Total cholesterol levels within the medium were determined and normalized with DMSO treated control. Data are shown as mean±SEM of six replicates (n=6); * ** P<0.001.
Cell Culture medium was harvested from human iPSC-derived hepatocytes (Day 20) before and after 24 hours of DL-1 (2 μg/mL) or vehicle treatment. Pre-drug and Post-drug medium were concentrated using Amico® Ultra 10K Centrifugal Filters (Sigma-Aldrich, #Z740171), and total cholesterol levels were determined using the colorimetric cholesterol assay kit (Sigma-Aldrich, #MAK043) following the manufactural instructions.

[2] = tested on: hepatic markers (ALB, AFP, HNF4α, SLC10A1, ASGR1); assay: Hepatic marker expression (real-time qPCR, immunofluorescence); format: cell-based, human; conditions: 2 μg/mL, 24 hours
Procedure: C. Human iPSC-derived hepatocytes were treated with 2 μg/mL of DL-1 for 24 hours. (A) mRNA level of hepatic markers (ALB, AFP, HNF4α, SLC10A1, ASGR1) were determined via real-time qPCR. (B) Cells were fixed and immunofluorescence was performed to determine HNF4 and ALB level. […] Data are shown as mean SEM of […] (n=4).
For hepatic marker expression analysis, human iPSC-derived hepatocytes (Day 20) were treated with 2 μg/mL of DL-1 for 24 hours. Cells were fixed in 4% paraformaldehyde (PFA) and penetrated with 0.1% Triton-X-100. Cells were incubated with primary antibodies (ALB, 1:1000, Dako; HNF4-a, 1:1000, Santa Cruz) overnight at 4 degrees and then switched to secondary antibodies (Alexa Flour 488 goat anti-rabbit, 1:1000, Invitrogen; Alexa Flour 594 rabbit anti-mouse, 1:2000, Invitrogen). Images were taken using Bio-Rad Zoe™ Fluorescent Cell Imager (Bio-Rad). For intracellular APOB localization, iPSC-heps were treated with 0, 3, 12, 48 μg/mL of DL-9 for 24 hours, and cells were fixed in 4% PFA followed by 0.1% Triton-X-100 penetration. […] Integrated fluorescent intensity was normalized by total cell counts, which is determined by DAPI staining.
Human iPSC-derived hepatocytes (Day 20) were treated with 2 μg/mL of DL-1 for 24 hours. […] Quantitative real-time PCR was performed on a BioRad CFX384 real-time PCR machine.

APOA = assay: Secreted APOA ELISA in iPSC-derived hepatocytes; format: cell-based, human; conditions: 2 μg/mL, 8 to 48 hours
Procedure: E. Human iPSC-derived hepatocytes were treated with 2 μg/mL of DL-1 from 8 to 48 hours. Albumin, APOPA, and APOB level in the culture medium were determined via ELISA. All secreted proteins were compared to non-treated cells. In FIG. 5, accumulated APOB in the medium from different time-point was measured and normalized to albumin level. In FIG. 6, APOA, APOB, and albumin in the medium at the indicated times were compared to control. […] Data are shown as mean±SEM of four replicates (n=4); *p<0.05, **p<0.01.
Human APOB level was determined via a commercial sandwich ELISA (3715-1H-6; Mabtech), and the signal was detected using the HRP-TMB system. The concentration of APOB was determined using a standard curve with four parameters logistic regression model. Human APOA level was determined via a commercial sandwich ELISA (3710-1H-6; Mabtech) following manufacture instruction. Human albumin levels in cell culture supernatants were measured by commercial ELISA (E88-129; Bethyl Laboratories) following manufactural instructions.

Intracellular APOB = Intracellular APOB accumulation (LDL uptake, pulse-chase, immunofluorescence); format: cell-based; conditions: human iPSC-derived hepatocytes
Procedure: C. Human iPSC-derived hepatocytes (iPSC-Heps) were treated with 2 μg/mL of DL-1 or equivalent concentration of DMSO for 24 hours. In FIG. 7A, APOB mRNA level was determined using real-time qPCR. In FIG. 7B Intracellular APOB, LDLR, and HSP90 protein levels were determined via immunoblot; Quantification of biological replicates of immunoblots. Data are shown as mean±SD of four replicates (n=4). In FIG. 12A LDL uptake assay was performed by pre-treating cells with 2 μg/mL of DL-1, 20 μM of Atorvastatin, and equivalent concentration of DMSO for 24 hours followed by 4 hours of pHrodo-LDL exposure; LDL endocytosis was determined and quantified by fluorescence image; data are shown as mean±SD of triplicates (n=3). In FIG. 12B, iPSC-Heps were pre-treated with 3, 12, and 48 μg/mL of DL-9 for 2 hours, and cells were pulse-labeled with [^35S]methionine for 10 minutes and chased for 120 mins with or without DL-9 treatment; intracellular ^35S-APOB were determined by immunoprecipitation using anti-APOB antibody; band density was quantified and normalized with 5% of input (n=3). […]
Immunoprecipitation of cell lysates was performed using protein G magnet beads (ThermoFisher) and anti-APOB (LDL20/17, Mabtech) antibodies. […] Expression levels were quantified via integrated intensity normalized by 5% of input of each sample. […] Signals were detected using HRP-conjugated secondary antibodies. […]

## Sc1nc(S)nc(Nc2ccc(Nc3ccccc3)cc2)n1 (racemic) [DL-1, 6-{[4-(phenylamino)phenyl]amino}-1,3,5-triazine-2,4-dithiol]
[1]
  total cholesterol level in culture medium: reduced total cholesterol level
[2]
  hepatic character (hepatic marker mRNA, HNF4 and ALB immunofluorescence): no impact on hepatic characters
APOA
  APOA level in culture medium, time course: without affecting albumin and APOA level
Intracellular APOB
  intracellular APOB accumulation: induced intracellular APOB accumulation independently of mRNA expression and LDL uptake
